Here are results for one compound from KR20210056931A, “피리메타민을 유효성분으로 포함하는 면역 관련 질환의 치료 또는 예방용 약학 조성물” (priority 2019, dated 2021).

For assay [1], the system named is TNF-α. Briefly: TNF-α expression inhibition in Raw264.7, comparison with DMARDs, Experiment 2-1. It counts as cell-based. To be noted: 6 h pretreatment, LPS 10 ng/mL, MTX 344 nM, HCQ 610 nM, PYR 50 ng/mL, CsA 391 ng/mL, AZA 25 ng/mL, SFZ 750 ng/mL.
In assay [2] the test system is rheumatoid arthritis model, DBA-1J Mice [류마티스 관절염 모델]. Briefly: Histopathological examination in rheumatoid arthritis animal model, dose regimen study, Experiment 6. The format is in vivo, mouse. The settings on record: Day 14; MTX 2 mg/kg/2day PO, HCQ 80 mg/kg/day QD PO, PG 25 mg/kg/day QD PO, TFC 10 mg/kg/day BID PO (G3-G6).
Assay [3] has as its system TNF-α. Briefly: Plasma TNF-α (ELISA), Experiment 6-5. The format is in vivo, mouse. A general note: ELISA stands for enzyme-linked immunosorbent assay.
In the next assay the test system is STAT3. Briefly: STAT3 activity (nuclear translocation) in Raw264.7, Experiment 3. It counts as cell-based. The settings on record: 50 ng/ml, 2 h pretreatment; LPS 100 ng/ml 16 h; Fig. 6.
Assay [4] has as its system TNF-α. Briefly: TNF-α expression inhibition in Raw264.7, comparison with hydroxychloroquine and proguanil, Experiment 2-3. The settings on record: PY 0.2 uM, HCQ 0.61 uM, PG 5 uM; LPS 10 ng/mL, 24 h co-treatment. It counts as cell-based.
Assay [5] concerns rheumatoid arthritis model, DBA-1J Mice [류마티스 관절염 모델]. Briefly: Arthritis score in rheumatoid arthritis animal model, dose regimen study, Experiment 6. It counts as in vivo, mouse. To be noted: HCQ 80 mg/kg/day QD PO, PG 25 mg/kg/day QD PO; for Arthritis score: MTX 2 mg/kg/2day PO, TFC 10 mg/kg/day BID PO (G3-G6).
Assay [6] shares this test system. Nature of the assay: Paw edema in rheumatoid arthritis animal model, dose regimen study, Experiment 6. It counts as in vivo, mouse. To be noted: Day 14, MTX 2 mg/kg/2day PO, HCQ 80 mg/kg/day QD PO, PG 25 mg/kg/day QD PO, TFC 10 mg/kg/day BID PO (G3-G6).

Where “and” joins values, the source holds several entries; their conditions need not be identical. Identical values can stand only once.

`CCN(CCO)CCCC(C)Nc1ccnc2cc(Cl)ccc12` (stereo not shown) [히드록시클로로퀸, Hydroxychloroquine]: the results for the TNF-α expression with TNF-α [1] (2hr), in the assay with TNF-α [1] (24hr) and with TNF-α [4] were 339.5 pg/mL, 3564.6 pg/mL and 762.2, respectively. Also, the Bone destruction in assay [2] came to 2.7±0.5. Also, the Cartilage damage in assay [2] came out at 2.0±1.1. Moreover, in assay [2], the “Histopathological examination, total” value is listed as 7.7±1.5. The Synovium proliferation in assay [2] came to 3.0±0.0. Besides, the “Plasma TNF-α” value in the assay on TNF-α [3] (Day 14, MTX 2 mg/kg/2day PO, HCQ 80 mg/kg/day QD PO, PG 25 mg/kg/day QD PO, TFC 10 mg/kg/day BID PO (G3-G6)) was found to be 839.5 pg/mL. The “Plasma TNF-α (in words)” value with TNF-α [3] (HCQ, PG, TFC groups) was “혈장 TNF-α가 감소하지 않은”. Moreover, the STAT3 nuclear translocation entry in the assay on STAT3 is recorded as “LPS 16 시간 자극에 의한 STAT3의 핵이동을 억제함”. Further, the Arthritis score in assay [5] (Day 0) worked out at 2.5±1.2 total score; in assay [5] (Day 2), 4.0±0.6 total score; in assay [5] (Day 5), 6.5±0.8 total score; in assay [5] (Day 7), 9.3±2.0 total score; in assay [5] (Day 9), 10.3±2.1 total score; in assay [5] (Day 12), 11.3±2.5 total score. In addition, the Arthritis score in assay [5] (Day 14) turned out to be 12.0±2.8 total score. The “Arthritis score (in words)” value in assay [5] (TFC 10 mg/kg/day BID PO) is on record as “관절염 지수가 개선되지 않았다”. For the same compound, in assay [6], the “Paw edema, HL, mean” value is given as 0.17 mL. For the same compound, in assay [6], the “Paw edema, HR, mean” value is 0.16 mL. In addition, the “Paw edema, HL, individual animal” value in assay [6] (listed as HCQ) was 0.17 mL and 0.13 mL and 0.19 mL and 0.15 mL and 0.16 mL. In addition, the “Paw edema, HR, individual animal” value in assay [6] (listed as HCQ) was 0.19 mL and 0.15 mL and 0.13 mL and 0.16 mL and 0.18 mL and 0.14 mL.
